≈ marks a conversion by molar mass, not a printed value.
What was measured:
ACAT = ACAT inhibitory activity (cholesteryl oleate production by small intestine mucosal microsomes); assay type: biochemical, Japanese white rabbits; settings: rabbit small intestine mucosal microsomes, [1-14C] oleoyl CoA, 37° C. 7 minutes, vs control; test concentration not given
serum total cholesterol = assay: Serum total cholesterol reducing effect in rats on high cholesterol feed; assay type: in vivo; settings: male Wister rats, vs control
Description: Mile Wister rats weighing 180-200 g were bred under free access to a high cholesterol feed [added with cholesterol (1%), cholic acid (0.5%) and coconut oil (10%), Clea Japan, Inc.] for 3 days, during which period a test compound (3 mg/kg and 10 mg/kg) suspended in 5% gum arabic solution was forcibly administered once a day orally for 3 days. Only 5% gum arabic solution was administered to control animals. After final administration, the test animals were fasted and blood was taken 5 hours later. The serum total cholesterol level was determined using a commercially available assay lit (cholesterol-CII-Test Wako, Wako Pure Chemical Industries, Ltd.).

plasma lipoperoxidation [1] = assay: In vitro plasma lipoperoxidation inhibitory activity (malondialdehyde production); assay type: biochemical, Wister rats; settings: rat heparinized plasma, test compound final concentration 10^-5M, copper sulfate, malondialdehyde production vs control
Description: Under ether anesthesia, blood was taken from male Wister rats weighing 160-190 g that had been fasted for 16 hours, and heparinized plasma was separated by conventional method. DMSO (10 μl) or a test compound (final concentration 10^−5M) dissolved in DMSO (test compound solution 10 μl) was added to plasma (1.0 ml), and the mixture was incubated at 37° C. for 5 minutes.

plasma lipoperoxidation [2] = assay: Ex vivo plasma lipoperoxidation inhibitory activity after oral administration; assay type: in vivo; settings: male Wister rats, plasma taken 1 hour after administration
Description: Under ether anesthesia, blood was taken from male Wister rats weighing 160-190 g that had been fasted for 16 hours, and heparinized plasma was separated by conventional method.
Only 5% gum arabic solution was administered to control animals. At 1 hour after administration, blood was taken under ether anesthesia and heparinized plasma was separated by conventional method. The plasma (1.0 ml) was processed in the same manner as in Experimental Example 3 and the amount of produced malondialdehyde was determined.

[3] = Solubility in buffer pH 6.8; settings: for solubility at 1 h: buffer pH 6.8, 25 °C, pH 6.8, aqueous buffer, thermodynamic from solid; for Solubility: buffer pH 6.8, shaken 1 hr at 25° C., HPLC
Description: A pulverized test compound (10 mg) was added to buffer (1 ml, pH 6.8), and the mixture was shaken for 1 br at 25° C.

[4] = Oral administration, plasma concentration in SD rats; settings: 30 mg/kg orally, fasted male SD rats, sampled 0.5-6 hours
Description: (§1) At 0.5, 1, 2, 4 and 6 hours after administration, blood was taken and heparinized plasma was separated by conventional method.

[5] = Oral administration, plasma concentration in Wister rats; settings: 30 mg/kg orally, fasted male Wister rats, sampled 0.5-6 hours
Description: as §1

[6] = 3 mg/kg/day orally once a day for 3 days
[7] = 10 mg/kg/day orally once a day for 3 days

SMILES	ACAT inhibition (%) (ACAT)	Reduction (%) of serum total cholesterol (serum total cholesterol; [6])	Reduction (%) of serum total cholesterol (serum total cholesterol; [7])	Inhibition (%) of plasma lipoperoxidation (plasma lipoperoxidation [1])	other results
CCCCCCCCN1CCc2c(C)c(CO)c(C)c(NC(=O)C(C)(C)C)c21 [Example 1, N-(1-octyl-5-hydroxymethyl-4,6-dimethylindolin-7-yl)-2,2-dimethylpropanamide]	99.2%	52.8%	57.1%	51.7%	
CCCCCCCCN1CCc2c(C)c(CC(=O)OCC)c(C)c(NC(=O)C(C)(C)C)c21 [Example 3, N-(1-octyl-5-ethoxycarbonylmethyl-4,6-dimethylindolin-7-yl)-2,2-dimethylpropanamide]	92.5%	54.2%	61.2%	49.2%	
CCCCCCCCN1CCc2c(C)c(CC(=O)O)c(C)c(NC(=O)C(C)(C)C)c21 [Example 4, N-(1-octyl-5-carboxymethyl-4,6-dimethylindolin-7-yl)-2,2-dimethylpropanamide]		58.8%	57.5%	51.2%	Inhibition (%) of plasma lipoperoxidation (plasma lipoperoxidation [2]; 10 mg/kg orally): 39.0%; solubility at 1 h [3]: 6900 µg/mL (≈ 16.6 mM); Highest concentration in plasma [4]: 13.6 µg/mL; Highest concentration in plasma [5]: 1.4 µg/mL
CCCCCCCCN1CC(CCC(=O)O)c2c(C)cc(C)c(NC(=O)C(C)(C)C)c21 (stereo not shown) [Example 11, N-[(1-octyl-3-(2-carboxyethyl)-4,6-dimethylindolin-7-yl)]-2,2-dimethylpropanamide]				44.5%	
CCCCCCN1CCc2c(C)c(CC(=O)O)c(C)c(NC(=O)C(C)(C)C)c21 [Example 18]					Solubility [3]: 7300 µg/mL (≈ 18.8 mM)
CCCCCCCCCN1CCc2c(C)c(CC(=O)O)c(C)c(NC(=O)C(C)(C)C)c21 [Example 36]					Solubility [3]: 4200 µg/mL (≈ 9.75 mM); Highest concentration in plasma [4]: 12.2 µg/mL; Highest concentration in plasma [5]: 2.2 µg/mL
CCCCCCCCN1CCc2cc(CC(=O)O)c(C)c(NC(=O)C(C)(C)C)c21 [Example 71]		26.5%	52.3%	48.1%	Solubility [3]: 100 µg/mL (≈ 0.248 mM)
CCCCCCCCN1CCc2cc(CO)c(C)c(NC(=O)C(C)(C)C)c21 [Example 76]	94.7%			51.7%	
CCCCCCCCN1CCc2cc(CN(C)C)c(C)c(NC(=O)C(C)(C)C)c21 [Example 81]		31.7%	53.8%	47.1%	
CCCCCCCCN1CCc2cc(CC(=O)O)c(C)c(NC(=O)C(C)(C)C)c21 [Example 116]	92.0%	26.5%	50.9%	45.5%	
CCCCCCCCN1CCc2c(C)c(CCC(=O)O)c(C)c(NC(=O)C(C)(C)C)c21 [Example 120, N-(1-octyl-5-carboxyethyl-4,6-dimethylindolin-7-yl)-2,2-dimethylpropanamide]	92.3%	45.8%	44.6%		
CCCCSCCCCCCN1CCc2c(C)c(CC(=O)O)c(C)c(NC(=O)C(C)(C)C)c21 [Example 121]	92.5%	87.8%	48.1%	41.6%	
CCCCSCCCN1CCc2c(C)c(CC(=O)O)c(C)c(NC(=O)C(C)(C)C)c21 [Example 122]	92.0%	88.2%	50.0%		
CCCCCCCCN1CCCc2c(C)c(CC(=O)O)c(C)c(NC(=O)C(C)(C)C)c21 [Example 125, N-(1-octyl-6-carboxymethyl-5,7-dimethyl-1,2,3,4-tetrahydroquinolin-8-yl)-2,2-dimethylpropanamide]	93.0%	30.2%	47.9%	48.0%	
CCCCCCCCN1CCc2cc(C(=O)O)c(C)c(NC(=O)C(C)(C)C)c21 [Example 155, N-(1-octyl-5carboxy-6-methylindolin-7-yl)-2,2-dimethylpropanamide]		55.2%	58.5%	47.7%	
CCCCCCCCN1CCc2c(C)c(C(=O)O)c(C)c(NC(=O)C(C)(C)C)c21 [Example 159]		53.8%	57.5%	48.3%	
CC(C)(Sc1cc(C(C)(C)C)c(O)c(C(C)(C)C)c1)Sc1cc(C(C)(C)C)c(O)c(C(C)(C)C)c1 [Probucol, 4,4-isopropylidenedithiobis(2,6-di-t-butylphenol), reference compound]					Inhibition (%) of plasma lipoperoxidation (plasma lipoperoxidation [2]; 100 mg/kg orally): 15.4%
Cc1cc(C)c(NC(=O)N(Cc2ccc3c(c2)Cc2ccccc2-3)C2CCCCCC2)c(C)c1 [YM-750, 1-cycloheptyl-1-[(2-fluorenyl)methyl]-3-(2,4,6-trimethyl-phenyl) urea, reference compound]	92.0%	37.7%	46.4%		solubility at 1 h [3]: < 10 µg/mL

Reference: patent USRE38970E1, “Indolyl or indolinyl derivatives and medicinal use thereof as ACAT or lipid peroxidation inhibitors” (Kyoto Pharmaceutical Industries, Ltd., priority 1995, dated 2006)
